In experiment [1] the target is T1, KIF5B-RET WT in HEK293 cells (Homo sapiens, UniProt P07949).
T1 construct: expressed in transfected cells; host or cells: HEK293; the other entry of the earlier key: KIF5B (P33176, Kinesin-1 heavy chain)
T1 sequence (P07949 713-1063 limits assumed): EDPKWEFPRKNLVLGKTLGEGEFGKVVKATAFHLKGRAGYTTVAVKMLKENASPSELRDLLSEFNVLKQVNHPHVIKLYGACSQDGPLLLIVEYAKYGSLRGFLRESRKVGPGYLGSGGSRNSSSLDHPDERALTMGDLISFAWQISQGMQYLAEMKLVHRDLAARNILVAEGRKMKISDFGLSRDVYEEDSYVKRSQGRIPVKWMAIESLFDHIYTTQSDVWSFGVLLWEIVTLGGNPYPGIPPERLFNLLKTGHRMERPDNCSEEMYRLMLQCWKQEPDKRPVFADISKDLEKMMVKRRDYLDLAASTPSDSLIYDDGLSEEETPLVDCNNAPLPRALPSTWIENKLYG
Nature of the experiment: RET cell assay (In-Cell Western, phospho-RET Y1062), wildtype. Type of experiment: cell-based. To be noted: HEK293, doxycycline-induced KIF5B-RET WT, 1 hr compound treatment; read-out: EC50, inhibition of intracellular autophosphorylation of RET at tyrosine 1062, wildtype cells. The protocol: Compounds of formulas (I), (II), and (III) are screened for their ability to inhibit the intracellular autophosphorylation of RET at tyrosine 1062 as detected by In-Cell Western. HEK293 cells containing a doxycycline-inducible plasmid for inducible expression of KIF5B-RET WT and RET mutant forms V804M and G810S are seeded at 25,000 cells/well into black poly-D-lysine pre-coated 384-well plates (Corning, Catalog No. 356697). Expression of KIF5B-RET is induced with doxycycline at 1 μg/mL and cells are incubated at 37° C. overnight. Compounds are prepared in a threefold serial dilution in DMSO before further diluting 1:100 in media prior to the addition to the cells (0.1% final DMSO concentration). Compound treatment is performed for 1 hr at 37° C. followed by fixation of cells with 4% formaldehyde for 20 min at RT and cell permeabilisation with ice-cold MeOH for 10 min at RT. Cells are incubated with Intercept® blocking buffer (Li—COR, Catalogue No. 927-70010) for 1 hr at RT. Incubation with primary antibodies against human phospho-RET (Y1062) (R&D, Catalogue No. AF5009, 1/250 dilution) and human glyceraldehyde-3-phosphate dehydrogenase (clone 6C5, Merck, Catalog No. MAB374, 1/1000 dilution) are performed overnight at 4° C. Incubation with secondary antibodies IRDye® 800CW goat anti-rabbit IgG (Li—COR, Catalogue No. 926-32211, 1/1000 dilution) and IRDye® 680CW goat anti-mouse IgG (Li—COR, Catalogue No. 926-68070, 1/1000 dilution) are performed for 1 hr at RT. All antibody dilutions are done in Intercept® blocking buffer containing 0.05% Tween20. After washing cells with PBS-T (Cell Signaling technology, Catalogue No. 9809), the images are acquired on a Li—COR Odyssey LCx at 700 and 800 nm. Percent of DMSO control is calculated with 100% signal referring to control conditions containing no compound (0.4% DMSO only) and 0% signal represented by conditions containing control compound. The % of DMSO control values are fit to a 4 parameter logistic curve, and the determined EC50 value is defined as the estimated concentration of inhibitor at the inflexion point of the fitted curve.

Experiment [2] has as its target T2, V804M mutant RET kinase (N-terminal GST tagged recombinant human V804M mutant RET cytoplasmic domain, aa 658-end) (Homo sapiens, UniProt P07949, V804M).
T2 construct: human V804M mutant RET cytoplasmic domain (aa 658-end); GST (N); purchased Millipore 14-760
T2 sequence (P07949 658-1114 V804M limits assumed): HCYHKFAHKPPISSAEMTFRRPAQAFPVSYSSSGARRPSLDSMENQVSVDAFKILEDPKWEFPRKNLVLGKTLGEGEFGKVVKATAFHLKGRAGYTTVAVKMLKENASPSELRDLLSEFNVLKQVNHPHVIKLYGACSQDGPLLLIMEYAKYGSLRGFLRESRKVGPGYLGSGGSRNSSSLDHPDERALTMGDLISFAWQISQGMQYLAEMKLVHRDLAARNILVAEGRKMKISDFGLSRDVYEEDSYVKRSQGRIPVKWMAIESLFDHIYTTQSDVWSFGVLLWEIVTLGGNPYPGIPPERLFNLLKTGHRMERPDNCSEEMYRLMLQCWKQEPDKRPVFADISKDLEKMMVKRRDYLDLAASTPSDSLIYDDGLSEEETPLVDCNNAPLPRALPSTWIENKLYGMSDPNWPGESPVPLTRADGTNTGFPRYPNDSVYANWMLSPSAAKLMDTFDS
In words: RET enzyme assay (HTRF KinEASE TK), V804M. It counts as biochemical. The settings on record: 1 mM ATP, 40 min incubation at 22° C. Here is the method: Assay A: RET Enzyme Assay
Compounds of formulas I, II, or III are screened for their ability to inhibit wildtype, V804M, and G810S mutant RET kinase using CisBio's HTRF® KinEASE™TK assay technology. N-terminal GST tagged recombinant human RET cytoplasmic domain (aa 658-end) from Eurofins ([…]; Catalog No. 14-570M) or N-terminal GST tagged recombinant human V804M mutant RET cytoplasmic domain (aa 658-end) from Millipore (1.25 nM enzyme; Catalog No. 14-760) or N-Terminal GST-tagged recombinant human G810S (aa-658-end) (1.25 nM Enzyme; produced in insect cells) is incubated with 62.5 nM TK-substrate biotin (CisBio, part of Catalog No. 62TK0PEC) and 1 mM ATP along with test compound (0.4% final DMSO in the assay) in a 1× Cisbio enzymatic buffer consisting of […], 5 mM MgCl2, 0.04% BSA and 0.05% Tween20 in a volume of 10 μL. Compounds are typically prepared in a threefold serial dilution in DMSO and added to the assay to give the appropriate final concentration. After a 40-60 min (40 min for V804M, 60 min for WT and G810S) incubation at 22° C., the reaction is quenched by adding quench solution (10 μL) containing 7.8 nM Streptavidine-XL665 and 0.5×TK-ab-Cryptate in HTRF detection buffer (all from CisBio, part of Cat. No. 62TK0PEC). After a 60-80 min incubation (60 minutes for WT, 80 minutes for V804M and G810S) at 22° C., the extent of reaction is determined using a PHERastar plate reader via HTRF detection at excitation/emission 337/665 nm. Percent of inhibition is calculated with 0% inhibition referring to control conditions containing no compound (0.4% DMSO only) and 100% inhibition represented by conditions containing no enzyme. The % inhibition values are fit to a 4 parameter logistic curve, and the determined IC50 value is defined as the estimated concentration of inhibitor at the inflexion point of the fitted curve.
For orientation: TR-FRET usually uses a lanthanide donor and a delayed reading to cut background.

Take `CC(C(=O)Nc1cc(C(C)(C)C(C)(F)F)on1)c1ccc(-c2nn(C(C)C)c(N)c2C(N)=O)cc1` (single isomer, unassigned; isomer 2) [Example 76, 5-Amino-3-[4-(1-[[5-(3,3-difluoro-2-methylbutan-2-yl)-1,2-oxazol-3-yl]carbamoyl]ethyl)phenyl]-1-isopropylpyrazole-4-carboxamide, Isomer 2]: the EC50 (as a rule, the concentration at which the effect is half-maximal) in experiment [1] was under 100 nM. Also, the IC50 (as a rule, the concentration that inhibits the measured activity by half) in experiment [2] is under 100 nM.

Consider `CC(C(=O)Nc1cc(C(C)(C)C)sn1)c1ccc(-c2nn(C(C)C)c(N)c2C(N)=O)cc1` (single isomer, unassigned; isomer 2) [Example 80, 5-Amino-3-(4-[1-[(5-tert-butyl-1,2-thiazol-3-yl)carbamoyl]ethyl]phenyl)-1-isopropylpyrazole-4-carboxamide, isomer 2], for which the 50% effective concentration (EC50) in experiment [1] was under 100 nM. Besides, the IC50 in experiment [2] was under 100 nM.

On to `CCC(C)(C)c1cc(NC(=O)C(C)c2ccc(-c3nn(C(C)C)c(N)c3C(N)=O)cn2)on1` (single isomer, unassigned; isomer 2) [Example 84, 5-Amino-1-isopropyl-3-[6-[2-[[3-(1,1-dimethylpropyl)isoxazol-5-yl]amino]-1-methyl-2-oxo-ethyl]-3-pyridyl]pyrazole-4-carboxamide, Isomer 2], for which the EC50 in experiment [1] is under 100 nM. In addition, the IC50 in experiment [2] was under 100 nM.

With `CC(C(=O)Nc1cc(C(C)(C)C(F)(F)F)no1)c1ccc(-c2nn(C(C)C)c(N)c2C(N)=O)cn1` (single isomer, unassigned; isomer 2) [Example 90, 5-Amino-1-isopropyl-3-[6-[1-methyl-2-oxo-2-[[3-(2,2,2-trifluoro-1,1-dimethyl-ethyl)isoxazol-5-yl]amino]ethyl]-3-pyridyl]pyrazole-4-carboxamide, Isomer 2], in experiment [1], the EC50 was under 100 nM. In addition, the half-inhibitory concentration (IC50) in experiment [2] is under 100 nM.

As for `CC(C(=O)Nc1cc(-c2ccc(Cl)cc2Cl)no1)c1ccc(-c2nn(C(C)C)c(N)c2C(N)=O)cn1` (single isomer, unassigned; isomer 2) [Example 94, 5-Amino-1-isopropyl-3-[6-[2-[[3-(2,4-dichlorophenyl)isoxazol-5-yl]amino]-1-methyl-2-oxo-ethyl]-3-pyridyl]pyrazole-4-carboxamide, Isomer 2], the EC50 in experiment [1] is under 100 nM. Besides, in experiment [2], the IC50 is under 100 nM.
